In ChEMBL document CHEMBL1212786 (Antimicrob Agents Chemother, 2010):

Legend:
[1] = AUC (0 to infinity) in monkey at 1 mg/kg, iv after 24 hrs by LC/MS/MS analysis; format: ADME, organism-based, Macaca mulatta; parameters: time infinity, dose 1 mg/kg, route intravenous; details: rhesus monkey, plasma
[2] = AUC (2 to 24 hrs) in Sprague-Dawley rat liver at 10 mg/kg, po by LC/MS/MS analysis; format: ADME, organism-based; parameters: time 2-24 hr, dose 10 mg/kg, route oral
[3] = AUC (2 to 24 hrs) in Sprague-Dawley rat whole blood at 10 mg/kg, iv by LC/MS/MS analysis; format: ADME, organism-based; parameters: time 2-24 hr, dose 10 mg/kg, route intravenous
[4] = AUC (2 to 24 hrs) in Sprague-Dawley rat liver at 10 mg/kg, iv by LC/MS/MS analysis; format: ADME, organism-based; parameters: time 2-24 hr, dose 10 mg/kg, route intravenous
[5] = Cytotoxicity against human Huh7ET cells assessed as lactate dehydrogenase release up to 5 uM after 72 hrs in presence of 10 to 40% human serum; format: cell-based; details: huh-7, 72 h
[6] = tested on: Jurkat; test: cells; details: Homo sapiens
[7] = Cmax in Sprague-Dawley rat whole blood at 30 mg/kg, po by LC/MS/MS analysis; format: ADME, organism-based; parameters: dose 30 mg/kg, route oral
[8] = Cmax in monkey at 7.5 mg/kg, po after 24 hrs by LC/MS/MS analysis; format: ADME, organism-based, Macaca mulatta; parameters: dose 7.5 mg/kg, route oral; details: rhesus monkey, in vivo
[9] = AUC (0 to infinity) in monkey at 7.5 mg/kg, po after 24 hrs by LC/MS/MS analysis; format: ADME, organism-based, Macaca mulatta; parameters: dose 7.5 mg/kg, route oral, time infinity; details: rhesus monkey, plasma
[10] = Oral bioavailability in Sprague-Dawley rat at 20 mg/kg after 24 hrs by LC/MS/MS analysis; format: ADME, organism-based; details: in vivo
[11] = Oral bioavailability in Sprague-Dawley rat at 5 mg/kg after 24 hrs by LC/MS/MS analysis; format: ADME, organism-based; details: in vivo
[12] = Apparent elimination half life in monkey at 15 mg/kg, po after 24 hrs by LC/MS/MS analysis; format: ADME, organism-based, Macaca mulatta; parameters: dose 15 mg/kg, route oral; details: rhesus monkey, in vivo
[13] = tested on: Hepatitis C virus; test: Antiviral activity against Hepatitis C virus infected in human Huh7ET cells assessed as inhibition of viral replication at 0.02 to 5 uM after 24 hrs by luciferase reporter gene assay; format: functional, Hepacivirus hominis, Huh-7
[14] = Tmax in monkey at 7. 5 mg/kg, po by LC/MS/MS analysis; format: ADME, organism-based, Macaca mulatta; parameters: dose 5 mg/kg, route oral; details: rhesus monkey, in vivo
[15] = Tmax in Sprague-Dawley rat at 20 mg/kg, po by LC/MS/MS analysis; format: ADME, organism-based; parameters: dose 20 mg/kg, route oral; details: in vivo
[16] = Apparent elimination half life in monkey at 1 mg/kg, iv by LC/MS/MS analysis; format: ADME, organism-based, Macaca mulatta; parameters: dose 1 mg/kg, route intravenous; details: rhesus monkey, in vivo
[17] = AUC (2 to 24 hrs) in Sprague-Dawley rat whole blood at 30 mg/kg, po by LC/MS/MS analysis; format: ADME, organism-based; parameters: time 2-24 hr, dose 30 mg/kg, route oral
[18] = AUC (0 to infinity) in monkey at 5 mg/kg, po after 24 hrs by LC/MS/MS analysis; format: ADME, organism-based, Macaca mulatta; parameters: time infinity, dose 5 mg/kg, route oral; details: rhesus monkey, plasma
[19] = Apparent elimination half life in Sprague-Dawley rat at 5 mg/kg, iv by LC/MS/MS analysis; format: ADME, organism-based; parameters: dose 5 mg/kg, route intravenous; details: in vivo
[20] = Tmax in monkey at 5 mg/kg, po by LC/MS/MS analysis; format: ADME, organism-based, Macaca mulatta; parameters: dose 5 mg/kg, route oral; details: rhesus monkey, in vivo
[21] = Apparent volume of distribution in monkey at 1 mg/kg, iv after 24 hrs by LC/MS/MS analysis; format: ADME, organism-based, Macaca mulatta; parameters: dose 1 mg/kg, route intravenous; details: rhesus monkey, in vivo, read-out: Vz
[22] = Apparent elimination half life in monkey at 5 mg/kg, po after 24 hrs by LC/MS/MS analysis; format: ADME, organism-based, Macaca mulatta; parameters: dose 5 mg/kg, route oral; details: rhesus monkey, in vivo
[23] = Cmax in Sprague-Dawley rat liver at 30 mg/kg, po by LC/MS/MS analysis; format: ADME, organism-based; parameters: dose 30 mg/kg, route oral
[24] = tested on: Hepatitis C virus; test: microbe, parasite or virus in culture; details: Huh-7, 24 h
Description: Antiviral activity against Hepatitis C virus infected in human Huh7ET cells assessed as inhibition of viral replication after 24 hrs by RT-PCR analysis

[25] = Apparent volume of distribution in Sprague-Dawley rat at 5 mg/kg, iv after 24 hrs by LC/MS/MS analysis; format: ADME, organism-based; parameters: dose 5 mg/kg, route intravenous; details: in vivo, read-out: Vz
[26] = AUC (0 to infinity) in monkey at 15 mg/kg, po after 24 hrs by LC/MS/MS analysis; format: ADME, organism-based, Macaca mulatta; parameters: time infinity, dose 15 mg/kg, route oral; details: rhesus monkey, plasma
[27] = molecular target: Cytochrome P450 2C19 (Homo sapiens, UniProt P33261); test: Inhibition of human recombinant CYP2C19 after 30 mins; format: ADME
[28] = tested on: Hepatocyte; test: Cellular uptake in human hepatocytes assessed per mg of cellular protein association with nonparenchymal fraction at 0.378 uM after 1 hr by LC/MS/MS analysis; format: ADME, cell-based
[29] = Cmax in Sprague-Dawley rat at 5 mg/kg, po after 24 hrs by LC/MS/MS analysis; format: ADME, organism-based; parameters: dose 5 mg/kg, route oral; details: in vivo
[30] = Cytotoxicity against human Huh7ET cells assessed as lactate dehydrogenase release up to 10 uM after 72 hrs; format: cell-based; details: huh-7, 72 h
[31] = Tmax in Sprague-Dawley rat at 10 mg/kg, po by LC/MS/MS analysis; format: ADME, organism-based; parameters: dose 10 mg/kg, route oral; details: in vivo
[32] = Systemic clearance in Sprague-Dawley rat at 5 mg/kg, iv after 24 hrs by LC/MS/MS analysis; format: ADME, organism-based; parameters: dose 5 mg/kg, route intravenous; details: in vivo
[33] = Apparent elimination half life Sprague-Dawley rat at 20 mg/kg, po after 24 hrs by LC/MS/MS analysis; format: ADME, organism-based; parameters: dose 20 mg/kg, route oral; details: in vivo
[34] = molecular target: Cytochrome P450 2C9 (Homo sapiens, UniProt P11712); test: Inhibition of human recombinant CYP2C9 after 30 mins; format: ADME
[35] = Tmax in Sprague-Dawley rat at 5 mg/kg, po by LC/MS/MS analysis; format: ADME, organism-based; parameters: dose 5 mg/kg, route oral; details: in vivo
[36] = Cmax in Sprague-Dawley rat liver at 10 mg/kg, iv by LC/MS/MS analysis; format: ADME, organism-based; parameters: dose 10 mg/kg, route intravenous
[37] = AUC (0 to infinity) in Sprague-Dawley rat at 20 mg/kg, po after 24 hrs by LC/MS/MS analysis; format: ADME, organism-based; parameters: time infinity, dose 20 mg/kg, route oral; details: plasma
[38] = tested on: Hepatocyte; test: Cellular uptake in human hepatocytes assessed per mg of cellular protein association with hepatocyte fraction at 2.27 uM after 1 hr by LC/MS/MS analysis; format: ADME, cell-based
[39] = tested on: Hepatitis C virus; test: Antiviral activity against Hepatitis C virus infected in human Huh7ET cells assessed as inhibition of viral replication at 0.02 to 5 uM by luciferase reporter gene assay; format: functional, organism-based; details: Hepacivirus hominis, Huh-7, TDE = time-dependent effect
[40] = tested on: Hepatocyte; test: Cellular uptake in human hepatocytes assessed per mg of cellular protein association with hepatocyte fraction at 0.378 uM after 1 hr by LC/MS/MS analysis; format: ADME, cell-based
[41] = tested on: PBMC; test: Cytotoxicity against human PBMC at 0.0031 uM after 18 hrs; format: cell-based
[42] = Cytotoxicity against human PBMC assessed as cell viability at 10 uM after 18 hrs relative to control; format: cell-based; details: read-out: Activity
[43] = Oral bioavailability in monkey at 7.5 mg/kg after 24 hrs by LC/MS/MS analysis; format: ADME, organism-based, Macaca mulatta; details: rhesus monkey, in vivo
[44] = Cmax in Sprague-Dawley rat liver at 10 mg/kg, po by LC/MS/MS analysis; format: ADME, organism-based; parameters: dose 10 mg/kg, route oral
[45] = Systemic clearance in monkey at 1 mg/kg, iv after 24 hrs by LC/MS/MS analysis; format: ADME, organism-based, Macaca mulatta; parameters: dose 1 mg/kg, route intravenous; details: rhesus monkey, in vivo
[46] = tested on: Hepatitis C virus; test: microbe, parasite or virus in culture; details: Huh-7, 72 h
[47] = AUC (0 to infinity) in monkey at 1.4 mg/kg, iv after 24 hrs by LC/MS/MS analysis; format: ADME, organism-based, Macaca mulatta; parameters: time infinity, dose 1.4 mg/kg, route intravenous; details: rhesus monkey, plasma
[48] = Apparent elimination half life in Sprague-Dawley rat at 2 mg/kg, iv by LC/MS/MS analysis; format: ADME, organism-based; parameters: dose 2 mg/kg, route intravenous; details: in vivo

Sequence of Cytochrome P450 2C9 (P11712 whole entry): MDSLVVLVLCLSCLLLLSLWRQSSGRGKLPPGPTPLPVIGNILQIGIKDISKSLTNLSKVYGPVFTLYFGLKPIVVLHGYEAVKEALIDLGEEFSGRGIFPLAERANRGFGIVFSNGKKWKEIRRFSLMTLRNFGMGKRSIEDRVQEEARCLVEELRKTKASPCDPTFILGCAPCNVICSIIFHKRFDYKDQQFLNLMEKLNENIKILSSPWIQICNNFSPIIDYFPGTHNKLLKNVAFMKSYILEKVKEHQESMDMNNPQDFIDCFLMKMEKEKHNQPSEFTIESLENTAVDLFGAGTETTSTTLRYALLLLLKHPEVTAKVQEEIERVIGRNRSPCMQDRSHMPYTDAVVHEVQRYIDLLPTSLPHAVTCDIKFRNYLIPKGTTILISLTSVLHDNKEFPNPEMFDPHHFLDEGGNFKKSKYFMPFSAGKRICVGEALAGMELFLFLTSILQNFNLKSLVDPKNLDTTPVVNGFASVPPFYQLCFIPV
Sequence of Cytochrome P450 2C19 (P33261 whole entry): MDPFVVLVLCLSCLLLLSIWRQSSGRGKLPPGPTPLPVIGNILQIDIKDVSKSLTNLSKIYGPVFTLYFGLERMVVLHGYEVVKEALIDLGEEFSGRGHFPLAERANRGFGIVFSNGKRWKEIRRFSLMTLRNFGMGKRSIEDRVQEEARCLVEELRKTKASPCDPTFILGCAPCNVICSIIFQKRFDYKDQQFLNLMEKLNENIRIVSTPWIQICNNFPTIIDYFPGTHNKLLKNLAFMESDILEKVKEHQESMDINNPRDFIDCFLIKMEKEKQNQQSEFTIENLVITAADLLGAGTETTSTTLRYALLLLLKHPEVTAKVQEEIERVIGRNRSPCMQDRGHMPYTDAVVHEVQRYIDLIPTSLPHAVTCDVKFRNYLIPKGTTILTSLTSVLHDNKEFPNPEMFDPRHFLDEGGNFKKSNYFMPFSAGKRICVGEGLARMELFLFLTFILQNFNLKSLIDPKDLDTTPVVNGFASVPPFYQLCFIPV

AUC(0-inf) [1]: 31500 ng·h/mL
AUC(0-t) [2]: 120 µg·h/mL
AUC(0-t) [3]: 30500 ng·h/mL
AUC(0-t) [4]: 139 µg·h/mL
EC50 [6]: 9.9 µM
Cmax [7]: 2220 ng/mL
Cmax [8]: 1930 ng/mL
AUC(0-inf) [9]: 42000 ng·h/mL
bioavailability [10]: 18.9%
bioavailability [11]: 23.1%
half-life [12]: 2600 min
Tmax [14]: 2.7 h
Tmax [15]: 4 h
half-life [16]: 1340 min
AUC(0-t) [17]: 30200 ng·h/mL
AUC(0-inf) [18]: 27900 ng·h/mL
half-life [19]: 1330 min
Tmax [20]: 2 h
Vd [21]: 1.02 L/kg
half-life [22]: 1480 min
Cmax [23]: 16800 ng/mL
EC50 [24]: 120 nM
Vd [25]: 4.3 L/kg
AUC(0-inf) [26]: 59200 ng·h/mL
IC50 [27]: 12.4 µM
Drug uptake [28]: 0.55 ng/mg
Cmax [29]: 900 ng/mL
Tmax [31]: 8 h
clearance [32]: 2.23 mL/min/kg
half-life [33]: 1430 min
IC50 [34]: 13.4 µM
Tmax [35]: 4 h
Cmax [36]: 13500 ng/mL
AUC(0-inf) [37]: 42500 ng·h/mL
Drug uptake [38]: 6.05 ng/mg
Drug uptake [40]: 1.03 ng/mg
bioavailability [43]: 15.7%
Cmax [44]: 11100 ng/mL
clearance [45]: 0.528 mL/min/kg
EC50 [46]: 120 nM
AUC(0-inf) [47]: 49900 ng·h/mL
half-life [48]: 1580 min
Compound: C/C=C/C[C@@H](C)[C@@H](O)[C@H]1C(=O)N[C@@H](CC)C(=O)N(C)C(SCCN(C)C)C(=O)N(C)[C@@H](CC(C)(C)O)C(=O)N[C@@H](C(C)C)C(=O)N(C)[C@@H](CC(C)C)C(=O)N[C@@H](C)C(=O)N[C@H](C)C(=O)N(C)[C@@H](CC(C)C)C(=O)N(C)[C@@H](CC(C)C)C(=O)N(C)[C@@H](C(C)C)C(=O)N1C (single isomer, unassigned) [SCY 635]
Activity [5]: Non-toxic
inhibition (INH) [13]: 70%
Activity [30]: Non-toxic
Activity [39]: tde
Activity [41]: Non-toxic
viability at 18 h, 10 µM [42]: 10.9%
